A short description of the series: Human HepG2 cell viability assay in 384 well format. Further details: dose 125 nL, time 70.5 hour; concentration not given beside the values. The following applies: HepG2 cells, read-out: Inhibition. In kind it is toxicity, cell-based.
As for `COC(=O)CC(NC(=O)c1cccc(CS(C)(=O)=O)c1)c1cccs1` (centres undefined), the cytotoxicity at 70.5 h is -4.71%. To `Cc1nsc(N2CCN(CC(=O)N(C3CC3)C(C)C3CC3)CC2)n1` (centres undefined) belongs 13.6%.

Take `O=C(C1SCCc2sccc21)N1CCCCC1` (centres undefined): the cytotoxicity at 70.5 h is -6.95%.

For the compound `Cc1noc(NC(=O)c2ccc(F)cc2)n1`, the cytotoxicity at 70.5 h was -3.99%.

On to `CC(=O)N(Cc1noc(C)n1)C1CCN(CC2CCCC2)C1` (centres undefined), for which the cytotoxicity at 70.5 h amounted to 23.3%. To `Cn1cc2c(n1)C(CNC1CCOCC1)OCC2` (centres undefined) belongs -5.41%; to `COc1cccc(Nc2nc(C3CCNCC3)c3sc(C)c(C)n23)c1`, -7.32%; to `NC(=O)CS(=O)(=O)Cc1csc(-c2ccc(F)cc2)n1`, 13.6%.

As to `CC(C)(C)n1ncc2c(=O)n(CC(=O)NCc3ccccc3)cnc21`, the cytotoxicity at 70.5 h turned out to be 7.32%. Then `CC1CC2(CCN(C(=O)c3csnn3)CC2)c2ccccc21` (centres undefined), with 0.655%; and `c1ccc(CO[C@H]2CN(c3ncccn3)C[C@@]23CCCO3)cc1`, with -11.5%. Consider `COCCNC(=O)NC1(c2ccccc2F)CC1`, for which the cytotoxicity at 70.5 h is -5.87%. To `CC1CCCN(C(=O)c2ccn(COc3ccccc3)n2)C1` (centres undefined) belongs 12.9%.

As for `COc1cccc(CN2CCCC(c3nn(C)c4nccnc34)C2)c1` (centres undefined), the cytotoxicity at 70.5 h worked out at 14.8%. To `Cc1cccn2c(=O)cc(OC(=O)c3ccc(OC(C)C)cc3)nc12` belongs -14.3%; to `Cc1nc(-c2ccco2)ccc1C(=O)NCCN1CCN(C)CC1`, -114%. On to `CSc1ncnc(NCc2cccs2)c1C#N`, for which the cytotoxicity at 70.5 h was -10.7%. Regarding `CC(C)N(C)C(=O)C1=NOC2(CCN(C(=O)c3cccn3C)C2)C1` (centres undefined), the cytotoxicity at 70.5 h is 24.9%.

In the case of `CCc1ncc2c(n1)CN(C(=O)CNC(=O)c1ccccc1)C2`, the cytotoxicity at 70.5 h was found to be 25.5%. With `CN(C)CC(=O)N1CC(c2nn(C)c3nccnc23)C1`, the cytotoxicity at 70.5 h is -6.77%. Turning to `CC(C)(C)OC(=O)N1CCC(C(=O)NCc2ccccc2)C1` (centres undefined), the cytotoxicity at 70.5 h was determined as 7.59%. With `CC(NC(=O)N(C)CCCOc1ccc(F)cc1)c1nncn1C` (centres undefined), the cytotoxicity at 70.5 h is -1.45%.

In the case of `O=C(NCC1(O)CCc2ccccc2C1)c1cccs1` (centres undefined), the cytotoxicity at 70.5 h was -14.5%. Consider `CCOC(C)C(=O)Nc1ccc2c(ccn2CC)c1` (centres undefined), for which the cytotoxicity at 70.5 h amounted to 1.36%. Then `NC(=O)C1CCN(C(=O)Cc2cnc(-c3c(Cl)cccc3Cl)s2)CC1`, with -13.5%; and `Cc1ccc(C(=O)N(C)Cc2c(C)noc2C)c(=O)[nH]1`, with -0.278%. As to `O=C(c1ccsc1)N1C[C@@H]2C[C@@H](c3nnc(C4CC4)o3)O[C@@H]2C1`, the cytotoxicity at 70.5 h was -8.35%. For `Cc1cnn(CC(=O)N2CCC(Nc3ccc(C)nn3)CC2)c1`, the cytotoxicity at 70.5 h came out at 12.8%. `Cn1ccnc1CN1CCC(c2nnc(Cn3cccn3)n2C)CC1`: the cytotoxicity at 70.5 h was found to be 24.7%. To `COCCCN(Cc1cnc(N2CCCC2)nc1)C1CCN(C)CC1` belongs -20.3%. Then `CC(C)CCN1CC2(CCN(C3CCCOC3)CC2)OC1=O` (centres undefined), with -8.74%; and `Cc1ccc(-c2nc(C(=O)N(C)CC(=O)N3CCCC3)cs2)c(C)c1`, with -4.38%; and `COc1ccnc(N2CCN(CC(=O)N3CCOCC3)CC2)n1`, with 2.32%. For `Cn1c(CN2CCOC[C@H]2c2nc(C(C)(C)C)co2)nc2ccccc21`, the cytotoxicity at 70.5 h was -0.449%. `Cc1ccc(F)c(NS(=O)(=O)c2cc3c(c(C(=O)O)c2)OCCO3)c1`: the cytotoxicity at 70.5 h was determined as 2.59%. `CCS(=O)(=O)N1CCc2cc(C(=O)N(C)C)c(NCC3CC3)nc2CC1`: the cytotoxicity at 70.5 h turned out to be 0.785%. `COc1ccnc(N(C)Cc2csc(C)n2)n1`: the cytotoxicity at 70.5 h was -6.22%.

As for `Cn1cccc1C(=O)N1CCn2nnc(COc3cccnc3)c2C1`, the cytotoxicity at 70.5 h was -8.46%. To `O=C(COCC1CC1)NCC(c1ccccc1)N1CCc2sccc2C1` (centres undefined) belongs -6.84%; to `CS(=O)(=O)N1CCOCC12CCN(c1nncs1)CC2`, 5.03%; to `O=C(NCCC1CCCCO1)c1cc(COc2ccccc2F)[nH]n1` (centres undefined), -4.49%.

For `CN(c1cccc(C#N)c1)S(=O)(=O)c1cc(C(=O)O)ccc1Cl`, the cytotoxicity at 70.5 h was -12.6%. To `O=S(=O)(CCCN1CCCC1Cn1cncn1)c1ccccc1` (centres undefined) belongs 11.6%; to `NC(=O)c1ccc(N2CCCCC2)c(NC(=O)c2cc(Br)ccc2F)c1`, -5.55%. For the compound `O=C1CN(Cc2occc2C(=O)NCCc2ccc(F)cc2)CCN1`, the cytotoxicity at 70.5 h worked out at 2.4%. To `Cc1ncc(CN2CCCC2c2ccc(C(=O)NCc3ccoc3)s2)s1` (centres undefined) belongs -0.861%; to `Cc1ccc(C(=O)NS(C)(=O)=O)cc1S(C)(=O)=O`, 3.46%. To `Cc1cn2c(n1)CCC(NC(=O)c1oc(Br)cc1C)C2` (centres undefined) belongs -11.5%; to `C[C@H]1C[C@@H]2CCN(C(=O)c3cnccn3)C[C@H]2O1`, -8.48%.

Turning to `CNc1cccc(CC2COCCN(C(=O)c3cncs3)C2)n1` (centres undefined), the cytotoxicity at 70.5 h was 1.43%. Regarding `CC1CCCN(Cc2c(C3CC3)[nH]c3ncccc23)C1` (centres undefined), the cytotoxicity at 70.5 h was -4.53%.

As to `Cc1noc(C)c1CN1CCc2ncnc(-c3ccncc3)c2CC1`, the cytotoxicity at 70.5 h amounted to 42.6%.

Regarding `CCn1ncc2c1CCCC2NCc1cccc2c1OCO2` (centres undefined), the cytotoxicity at 70.5 h is 15.8%. To `COc1cccc(NC(=O)NC(C)(C)c2noc(C)n2)c1` belongs -4.79%; to `CCOCC(=O)N1CCC(c2nccn2CC2CC2)CC1`, 1.15%; to `CC(=O)N(C)CC(=O)NC1(c2ccc(F)cc2)CCCC1`, -2.78%.

For the compound `CCCS(=O)(=O)N1C[C@H]2OC(=O)N(CCc3cccc(Cl)c3)[C@H]2C1`, the cytotoxicity at 70.5 h is -4.21%. Then `O=C(COc1cccc(F)c1)N1C[C@@H](O)[C@H](N2CCOCC2)C1`, with -5.2%; and `Cc1cc(NCC2CC(=O)Nc3ccccc32)nc(C)n1` (centres undefined), with -1.89%; and `Cc1ccccc1C(C(=O)NCCSC(F)(F)F)N(C)C` (centres undefined), with -11.1%.

Consider `CC(C)S(=O)(=O)NCC1CCCN(C(=O)c2ccc3c(c2)OCCO3)C1` (centres undefined), for which the cytotoxicity at 70.5 h was -1.13%.

Take `Cc1nccc(CNC(=O)CCc2c(C)nc3cc(O)nn3c2C)n1`: the cytotoxicity at 70.5 h is -5.73%. Then `CC(C)CCS(=O)(=O)N1CCCC(c2nncn2C(C)C)C1` (centres undefined), with -33.9%; and `CCN1CCC2(COCc3cnc(-c4cccnc4)nc32)C1` (centres undefined), with -13.9%; and `COc1ccc(Cl)cc1C(C(=O)O)N1CCSCC1` (centres undefined), with -3.65%.

Turning to `CS(=O)(=O)CCNC(=O)Nc1sc2ccccc2c1Cl`, the cytotoxicity at 70.5 h was -11.7%. Consider `CCS(=O)(=O)N1CCC2(CCC2NC(=O)c2ccn(C)c2)CC1` (centres undefined), for which the cytotoxicity at 70.5 h was -7.91%.

With `CC1CCc2nc(O)c(C(=O)NCCCN3CCN(C)CC3)cc2C1` (centres undefined), the cytotoxicity at 70.5 h is -7.22%. Then `CN(CCc1nccs1)C(=O)C1(C#N)CCCCC1`, with 0.343%; and `Cn1ccnc1CN1CCO[C@H]2C(CNC(=O)c3ccco3)CC[C@@H]21` (some centres undefined), with -0.67%; and `CC(NC(=O)Nc1nccs1)c1ccc(S(C)(=O)=O)cc1` (centres undefined), with -18.5%. With `O=C(CCc1ccsc1)NCC1CCN(C2CC2)C1` (centres undefined), the cytotoxicity at 70.5 h is -7.4%.

As for `O=C(NCCNc1ncccn1)C1CCN(CC(F)(F)F)CC1`, the cytotoxicity at 70.5 h is -3.78%. To `CCc1cc(N2CCNCC2)n2nc(C)c(C)c2n1` belongs -3.36%; to `Cc1ccc(-c2ccsc2C(=O)NC2CCS(=O)(=O)C2)cc1` (centres undefined), -3.7%; to `Cc1c(Cl)cccc1NC(=O)N1CCN(Cc2ccccn2)CC1`, -3.15%. To `N#CCSCC(=O)NCC1CCCCC1` belongs -7.13%.

`CC(C)NC(=O)C1CN(C(=O)c2ccco2)CC12CCOCC2` (centres undefined): the cytotoxicity at 70.5 h is -6.64%. Then `O=C(N1CCC2(CC1)[C@H](O)C[C@@H]2O)C1(c2ccccc2F)CC1`, with 1.59%; and `O=C(O)c1c[nH]c2cc(NS(=O)(=O)c3cccc(Cl)c3F)ccc12`, with -10.1%. In the case of `COc1cccc(C2CCCN2CCCNS(C)(=O)=O)c1` (centres undefined), the cytotoxicity at 70.5 h was -12.4%. To `Cc1cccc(C)c1C(=O)N1C[C@@H](CN2CCOCC2)[C@@H](CO)C1` belongs -7.08%. Then `CC(C)N(C)Cc1cnc2n1CCN(C(=O)Cc1cccs1)C2C` (centres undefined), with -6.21%; and `COc1ccc(C[C@H]2CN(C(=O)c3ccncc3)CC[C@@H]2OC)cc1`, with 18.8%.

Consider `Cc1occc1C(=O)N1CCC2(CCCN(c3ncc(F)cn3)C2)C1` (centres undefined), for which the cytotoxicity at 70.5 h was -1.51%. As to `Cn1cc(CN2CC[C@@H]3[C@@H](CCC(=O)N3CCc3c[nH]cn3)C2)cn1`, the cytotoxicity at 70.5 h was -6.69%. Turning to `COc1ccc(Cn2c(CCc3c(C)n[nH]c3C)n[nH]c2=O)cc1`, the cytotoxicity at 70.5 h is -3.26%. To `CC(C)CNC(=O)c1nn(C)c(NC(=O)Cc2ccccc2)c1F` belongs -9.39%. To `COc1cc(C)ccc1OCC(=O)NS(=O)(=O)c1cc(F)ccc1F` belongs -4.22%.

For `CCNC(=O)CNS(=O)(=O)c1cc(Br)ccc1F`, the cytotoxicity at 70.5 h is -2.68%.

Consider `c1coc(CN2CCCC3(COCCN(Cc4c[nH]nn4)C3)C2)c1` (centres undefined), for which the cytotoxicity at 70.5 h was -2.53%. Then `Cc1cc(C)n(CC2CCCCN2CCC(=O)Nc2cc(C)on2)n1` (centres undefined), with -10.3%.

As for `N#Cc1cccnc1N1CCCC(CO)(Cc2ccc(F)cc2)C1` (centres undefined), the cytotoxicity at 70.5 h was -5.86%. On to `Nc1ncc(-c2ccc(C(F)(F)F)cc2)c(C2CCCNC2)n1` (centres undefined), for which the cytotoxicity at 70.5 h was found to be 0.61%. Take `Cc1c(-c2cc(C(=O)N3CCc4ncc(Cl)cc4C3)on2)cnn1C`: the cytotoxicity at 70.5 h stood at 35%. Then `Cc1oc(C(=O)O)cc1S(=O)(=O)Nc1cccc(-c2nccs2)c1`, with 6.48%; and `Cc1ccc(OCC(=O)NCc2ccccc2F)nc1`, with -2.31%; and `CNC(=O)[C@H]1C[C@H]2OCC[C@H]2N(CC2CCOCC2)C1`, with -8.61%.

As for `CN1CCN(C2CCN(c3ccnc(-c4ccccc4)n3)CC2)C1=O`, the cytotoxicity at 70.5 h was 6.14%.

The values above are taken from ChEMBL document CHEMBL3507680, “University of Dundee, Gates Library screen for HepG2 cell viability”.
